Laboratory results reported in ChEMBL document CHEMBL3244144, “Piperidylalkylindoles. 1. Hypotensive activity of 3-[2-(phenoxypiperidyl)ethyl]indoles” (J Med Chem, 1978).
Active and inactive are the calls of the source. No cut-off for these calls is given here.

Columns and labels:
[1] = tested on: Rattus norvegicus; test: Antihypertensive activity in spontaneous hypertensive rat assessed as change in systolic blood pressure at 100 mg/kg, po dosed at 0 hrs on day 1, 2 and 3 measured on day 1 by indirect tail-cuff method; format: functional, Artery
[2] = tested on: Rattus norvegicus; test: Antihypertensive activity in spontaneous hypertensive rat assessed as change in systolic blood pressure at 100 mg/kg, po dosed at 0 hrs on day 1, 2 and 3 measured on day 3 by indirect tail-cuff method; format: functional, Artery
[3] = tested on: Rattus norvegicus; test: Toxicity in spontaneous hypertensive rat model at 100 mg/kg, po dosed at 0 hrs on day 1, 2 and 3 measured on day 3; format: organism-based; design: dose 100 mg/kg, route oral; conditions: in vivo
[4] = tested on: Rattus norvegicus; test: Antihypertensive activity in spontaneous hypertensive rat assessed as change in systolic blood pressure at 50 mg/kg, po dosed at 0 hrs on day 1, 2 and 3 measured on day 3 by indirect tail-cuff method; format: functional, Artery

| SMILES | Activity [1] | Activity [2] | Activity ([1]; Artery) | Activity ([2]; Artery) | other results |
| --- | --- | --- | --- | --- | --- |
| Cc1ccc(OC2CCN(CCc3c[nH]c4ccccc34)CC2)cc1 | -48 mmHg | -57 mmHg |  |  |  |
| Cc1ccc(OC2CCCN(CCc3c[nH]c4ccccc34)C2)cc1 (stereo not given) | -63 mmHg | -12 mmHg |  |  |  |
| Cc1cccc(OC2CCN(CCc3c[nH]c4ccccc34)CC2)c1 | -3 mmHg | -14 mmHg |  |  |  |
| O=C(C(=O)N1CCC(Oc2ccc(C(F)(F)F)cc2)CC1)c1c[nH]c2ccccc12 |  |  | inactive | inactive |  |
| COc1ccc2[nH]cc(CCN3CCC(Oc4ccc(F)cc4)CC3)c2c1 | -2 mmHg | -6 mmHg |  |  |  |
| FC(F)(F)c1ccc(OC2CCN(CCc3c[nH]c4ccccc34)CC2)cc1 | -24 mmHg |  |  |  | Activity [3]: Toxic |
| Cl.O=C(NC1CCN(CCc2c[nH]c3ccccc23)CC1)c1ccccc1 [INDORAMIN HYDROCHLORIDE] |  |  |  |  | Activity [4]: -79 mmHg |
| Cc1[nH]c2ccccc2c1C(=O)C(=O)N1CCC(Oc2ccc(F)cc2)CC1 |  |  | inactive | inactive |  |
| O=C(C(=O)N1CCC(Oc2ccccc2)CC1)c1c[nH]c2ccccc12 |  |  | inactive | inactive |  |
| O=C(C(=O)N1CCC(Oc2ccc(Cl)cc2)CC1)c1c[nH]c2ccccc12 |  |  | inactive | inactive |  |
| COc1cc2[nH]c(C)c(C(=O)C(=O)N3CCC(Oc4ccc(C(F)(F)F)cc4)CC3)c2cc1OC |  |  | inactive | inactive |  |
| Cc1ccc(OC2CCCN(C(=O)C(=O)c3c[nH]c4ccccc34)C2)cc1 (stereo not given) |  |  | inactive | inactive |  |
| COc1cc2[nH]c(C)c(CCN3CCC(Oc4ccc(C(F)(F)F)cc4)CC3)c2cc1OC | -24 mmHg | -58 mmHg |  |  |  |
| Cc1ccccc1OC1CCN(C(=O)C(=O)c2c[nH]c3ccccc23)CC1 |  |  | inactive | inactive |  |
| Brc1ccc(OC2CCN(CCc3c[nH]c4ccccc34)CC2)cc1 | -49 mmHg | -59 mmHg |  |  |  |
| Fc1ccc(OC2CCN(CCc3c[nH]c4ccc(OCc5ccccc5)cc34)CC2)cc1 | -2 mmHg | -16 mmHg |  |  |  |
| O=C(C(=O)N1CCC(Oc2ccc(F)cc2)CC1)c1c[nH]c2ccc(OCc3ccccc3)cc12 |  |  | inactive | inactive |  |
| Cc1ccc(OC2CCN(C(=O)C(=O)c3c[nH]c4ccccc34)CC2)cc1 |  |  | inactive | inactive |  |
| Fc1ccc(OC2CCN(CCc3c[nH]c4ccccc34)CC2)cc1 | -56 mmHg | -55 mmHg |  |  |  |
| Cc1[nH]c2ccccc2c1CCN1CCC(Oc2ccc(F)cc2)CC1 | -18 mmHg |  |  |  | Activity [3]: Toxic |
| O=C(C(=O)N1CCC(Oc2ccc(F)cc2)CC1)c1c[nH]c2ccccc12 |  |  | inactive | inactive |  |
| COc1ccc2[nH]cc(C(=O)C(=O)N3CCC(Oc4ccc(F)cc4)CC3)c2c1 |  |  | inactive | inactive |  |
| Clc1cccc(OC2CCN(CCc3c[nH]c4ccccc34)CC2)c1 | -11.2 mmHg | -8 mmHg |  |  |  |
| Cc1ccccc1OC1CCN(CCc2c[nH]c3ccccc23)CC1 | -7 mmHg | -8 mmHg |  |  |  |
| Cc1cccc(OC2CCN(C(=O)C(=O)c3c[nH]c4ccccc34)CC2)c1 |  |  | inactive | inactive |  |
| c1ccc(OC2CCN(CCc3c[nH]c4ccccc34)CC2)cc1 | -10 mmHg | -31 mmHg |  |  |  |
| Clc1ccc(OC2CCN(CCc3c[nH]c4ccccc34)CC2)cc1 | -47 mmHg | -54 mmHg |  |  |  |
| O=C(C(=O)N1CCC(Oc2cccc(Cl)c2)CC1)c1c[nH]c2ccccc12 |  |  | inactive | inactive |  |
